Key:
[1] = tested on: cytokine and IFN-inducible gene expression in draining lymph nodes and spleen; type: in vivo, mice; conditions: mouse, in vivo, sc
TNF = assay: Rat pharmacodynamics: serum TNF by ELISA; type: in vivo, rats; conditions: rat, in vivo, sc

## CCOCc1nc2c(N)nc3ccccc3c2n1CC(C)(C)O [R848, Resiquimod, reference compound]
[1]
  time of peak cytokine mRNA expression: 1 to 3 h
TNF
  Blood tumor necrosis factor (TNF) concentrations, peak: ~1,000 pg/ml

Source: US11464854B2, “Methods and compositions relating to adjuvants” (Children's Medical Center Corporation, priority 2017, dated 2022)
